This is an account of results in US10774074B2, “2-(1-heteroarylpiperazin-4-yl)methyl-1,4-benzodioxane derivatives as alpha2C antagonists” (ORION CORPORATION, priority 2015, dated 2020).

pIC50: −log10 of the molar value. Counter-ions that a name gives are not always drawn.

One assay addresses T1, human alpha2C receptors (Homo sapiens, UniProt P18825).
T1 construct: host or cells: CHO cells, cotransfected with pCEP-Gα16
T1 sequence (P18825 1-462): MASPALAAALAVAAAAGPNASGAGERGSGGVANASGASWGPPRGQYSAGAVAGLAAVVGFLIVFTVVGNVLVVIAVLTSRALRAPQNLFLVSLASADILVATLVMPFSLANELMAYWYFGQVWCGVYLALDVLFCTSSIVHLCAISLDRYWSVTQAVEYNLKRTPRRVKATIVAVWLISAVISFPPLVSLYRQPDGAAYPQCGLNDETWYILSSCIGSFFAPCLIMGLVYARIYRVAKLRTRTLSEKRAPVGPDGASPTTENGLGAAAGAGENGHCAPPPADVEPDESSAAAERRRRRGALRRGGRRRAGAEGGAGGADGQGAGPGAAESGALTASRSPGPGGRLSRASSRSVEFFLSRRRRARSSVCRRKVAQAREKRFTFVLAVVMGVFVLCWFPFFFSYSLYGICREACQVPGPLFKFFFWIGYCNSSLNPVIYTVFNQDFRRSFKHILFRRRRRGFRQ
The assay is described as follows: Determination of alpha2C antagonistic activity in vitro (FLIPR calcium assay, CHO cells). The following applies: for Kb: Kb calculated with the Cheng-Prusoff equation from IC50, adrenaline as agonist, CHO cells, human alpha2C, read-out: Alpha 2C Adrenaline Kb; for pIC50: antagonism of adrenaline stimulation, CHO cells stably transfected with human alpha2C receptor and Gα16, intracellular calcium (FLIPR), read-out: Alpha 2C Adrenaline IC50. It is filed as cell-based. As to the method:
(§1) EXPERIMENT 1: Determination of alpha2A and alpha2C Antagonistic Activity In Vitro
(§2) Chinese hamster ovary (CHO) cells stably transfected with human alpha2A or alpha2C receptors (University of Turku, Finland) were cotransfected with the expression vector pCEP-Gα16 (Molecular Devices, CA, USA) were used in this experiment. The cells were maintained at 37° C. in a 5% CO2/95% air atmosphere. The cells were cultured in HAM F-12 medium supplemented with 10% FCS, 25 mM HEPES, 100 IU/ml penicillin, 100 µg/ml streptomycin, 500 μg/ml geneticin and 240 μg/ml hygromycin B. The cells were subcultured twice weekly with 0.25% trypsin and 1 mM EDTA. The subculture ratio was 1:5-1:20. The growth medium was changed every 2 or 3 days. All cell culture reagents were from Gibco. The day before the experiment the cells were plated into black-walled, clear bottom 384-well plates at a density of 10,000 cells/well.
(§3) The growth medium was removed and the cells were incubated with the test compounds and the FLIPR Calcium 6 Assay reagent (Molecular Devices, CA, USA) for 2 h at 37° C. in dark. The test compounds (concentrations in cells 100 pM-10 μM) were dissolved in Probenecid-Ringer consisting of 150 mM NaCl, 3 mM KCl, 1.2 mM MgCl2, 1 mM CaCl2, 5 mM glucose, 20 mM HEPES and 2.5 mM probenecid (pH 7.4 adjusted with 1.0 M NaOH). The osmolarity was adjusted to 322 milliosmoles with Osmostat® OM-6020 osmometer (DIC Kyoto Daiichi Kagagu Co. Ltd, Japan). […] All experiments were performed at 37° C. For agonism measurements the test compounds dissolved in Probenecid-Ringer were applied by FLIPR Tetra at 15 s time point. In order to determine antagonism, the cells were stimulated either with 100 nM adrenaline or noradrenaline and the test compounds were added to the cells 2 h before the experiment with the FLIPR Calcium 6 Assay reagent. […] Typically, there were four replicates at each concentration and six different dose levels. For example, if the number of plates from which results were obtained was three, 72 (4*6*3) wells were thus measured to construct dose-response relationship. The samples were excited at 485 nm and emission was detected at 525 nm with a 515 nm cut-off filter. The minimum fluorescence value subtracted from the maximum value for each well was used in the calculations. ScreenWorks version 4.0 software was used for analyzing the results. Fitting of the antagonist dose-response results was performed with the free Hill equation and the IC50 values were fitted with IDBS XE software using model 200: y=(A+(B/(1+((x/C)^D)))), where A is the curve maximum, B the curve minimum and C equals the EC50 value. D is slope factor (Hill). Kb was calculated with the Cheng-Prusoff equation Kb=A/((B/C)+1), where A is the IC50 of antagonist, B the concentration of agonist and C the EC50 of the agonist.

The target of the next assay is T2, human alpha2A receptors (Homo sapiens, UniProt P08913).
T2 construct: host or cells: CHO cells, cotransfected with pCEP-Gα16
T2 sequence (P08913 1-465): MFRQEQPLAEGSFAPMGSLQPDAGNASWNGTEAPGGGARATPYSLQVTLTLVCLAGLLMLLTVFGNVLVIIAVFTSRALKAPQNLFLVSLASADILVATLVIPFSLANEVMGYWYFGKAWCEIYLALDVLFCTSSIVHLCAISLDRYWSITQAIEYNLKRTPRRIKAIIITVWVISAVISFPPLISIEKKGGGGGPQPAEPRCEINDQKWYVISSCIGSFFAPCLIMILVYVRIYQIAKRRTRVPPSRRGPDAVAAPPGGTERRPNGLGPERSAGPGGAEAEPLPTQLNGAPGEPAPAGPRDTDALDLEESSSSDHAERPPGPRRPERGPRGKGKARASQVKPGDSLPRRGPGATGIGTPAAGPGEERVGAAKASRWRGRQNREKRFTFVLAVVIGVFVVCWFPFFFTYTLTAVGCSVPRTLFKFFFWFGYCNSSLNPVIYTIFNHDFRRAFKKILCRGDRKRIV
The assay is described as follows: Determination of alpha2A antagonistic activity in vitro (FLIPR calcium assay, CHO cells). The assay is classed as cell-based. The conditions noted are these: for Kb: Kb calculated with the Cheng-Prusoff equation from IC50, adrenaline as agonist, CHO cells, human alpha2A, read-out: Alpha 2A Adrenaline Kb; for pIC50: antagonism of adrenaline stimulation, CHO cells stably transfected with human alpha2A receptor and Gα16, intracellular calcium (FLIPR), read-out: Alpha 2A Adrenaline IC50. As to the method:
as §1, §2, §3

Take `Cc1c(N2C(=O)CC(C)(C)C2=O)c(N2CCN(C[C@H]3COc4ccccc4O3)CC2)nn1C` [Compound of example 1, (S)-1-(3-(4-((2,3-Dihydrobenzo[b][1,4]dioxin-2-yl)methyl)piperazin-1-yl)-1,5-dimethyl-1H-pyrazol-4-yl)-3,3-dimethylpyrrolidine-2,5-dione]: on human alpha2C receptors, the Kb was below 0.1 nM and the pIC50 was above 11.00.

Regarding `Cc1c(N2C(=O)c3ccccc3C2=O)c(N2CCN(C[C@H]3COc4ccccc4O3)CC2)nn1C` [Compound of example 2, (S)-2-(3-(4-((2,3-Dihydrobenzo[b][1,4]dioxin-2-yl)methyl)piperazin-1-yl)-1,5-dimethyl-1H-pyrazol-4-yl)isoindoline-1,3-dione], at human alpha2A receptors, the Kb was below 0.004 nM and the pIC50 is above 10.00. On human alpha2C receptors, the Kb is below 0.1 nM and the pIC50 is above 11.00.

Take `Cc1nc(C#N)c(N2CCN(C[C@H]3COc4ccccc4O3)CC2)o1` [Compound of example 3, (S)-5-(4-((2,3-Dihydrobenzo[b][1,4]dioxin-2-yl)methyl)piperazin-1-yl)-2-methyloxazole-4-carbonitrile]: the Kb at human alpha2A receptors is above 449 nM; at human alpha2C receptors, 912 nM. In addition, the results for the pIC50 on human alpha2A receptors and at human alpha2C receptors were below 5.00 and 7.04, respectively.

With `Cc1c(N2CCC2=O)c(N2CCN(C[C@H]3COc4ccccc4O3)CC2)nn1C` [Compound of example 4, (S)-1-(3-(4-((2,3-Dihydrobenzo[b][1,4]dioxin-2-yl)methyl)piperazin-1-yl)-1,5-dimethyl-1H-pyrazol-4-yl)azetidin-2-one], at human alpha2A receptors, the Kb was 217 nM. Moreover, on human alpha2C receptors, the Kb is 0.13 nM and the pIC50 is 11.00.

Regarding `Cc1c(N2CCOC2=O)c(N2CCN(C[C@H]3COc4ccccc4O3)CC2)nn1C` [Compound of example 5, (S)-3-(3-(4-((2,3-Dihydrobenzo[b][1,4]dioxin-2-yl)methyl)piperazin-1-yl)-1,5-dimethyl-1H-pyrazol-4-yl)oxazolidin-2-one], the Kb on human alpha2A receptors was 206 nM; at human alpha2C receptors, 1 nM. Besides, the pIC50 on human alpha2A receptors was 5.34; on human alpha2C receptors, 10.00.

As to `Cc1c(N2CC(C)(C)NC2=O)c(N2CCN(C[C@H]3COc4ccccc4O3)CC2)nn1C` [Compound of example 6, (S)-1-(3-(4-((2,3-Dihydrobenzo[b][1,4]dioxin-2-yl)methyl)piperazin-1-yl)-1,5-dimethyl-1H-pyrazol-4-yl)-4,4-dimethylimidazolidin-2-one], on human alpha2C receptors, the Kb is below 0.1 nM and the pIC50 is above 11.00.

Consider `Cc1c(N2CC(C)(C)N(C)C2=O)c(N2CCN(C[C@H]3COc4ccccc4O3)CC2)nn1C` [Compound of example 7, (S)-1-(3-(4-((2,3-Dihydrobenzo[b][1,4]dioxin-2-yl)methyl)piperazin-1-yl)-1,5-dimethyl-1H-pyrazol-4-yl)-3,4,4-trimethylimidazolidin-2-one], for which, on human alpha2C receptors, the Kb was below 0.1 nM and the pIC50 was above 11.00.

On to `COCc1scnc1N1CCN(C[C@H]2COc3ccccc3O2)CC1` [Compound of example 8, (S)-4-(4-((2,3-Dihydrobenzo[b][1,4]dioxin-2-yl)methyl)piperazin-1-yl)-5-(methoxymethyl)thiazole], for which, on human alpha2A receptors, the Kb was 88 nM and the pIC50 is 5.71. Also, on human alpha2C receptors, the Kb was below 0.1 nM and the pIC50 was above 11.00.

For the compound `Cc1c(N2CCNC2=O)c(N2CCN(C[C@H]3COc4ccccc4O3)CC2)nn1C` [Compound of example 9, (S)-1-(3-(4-((2,3-Dihydrobenzo[b][1,4]dioxin-2-yl)methyl)piperazin-1-yl)-1,5-dimethyl-1H-pyrazol-4-yl)imidazolidin-2-one], on human alpha2A receptors, the Kb is above 449 nM and the pIC50 is below 5.00. Besides, on human alpha2C receptors, the Kb is 0.55 nM and the pIC50 is 10.22.

On to `c1ccc(-n2nccc2N2CCN(C[C@H]3COc4ccccc4O3)CC2)nc1` [Compound of example 10, (S)-1-((2,3-Dihydrobenzo[b][1,4]dioxin-2-yl)methyl)-4-(1-(pyridin-2-yl)-1H-pyrazol-5-yl)piperazine], for which, at human alpha2A receptors, the Kb was 350 nM and the negative-log IC50 (pIC50) was 5.11. Moreover, on human alpha2C receptors, the Kb was 1.14 nM and the pIC50 is 9.95.

Take `COCc1c(N2CCN(C[C@H]3COc4ccccc4O3)CC2)nn(C)c1C` [Compound of example 11, (S)-1-((2,3-Dihydrobenzo[b][1,4]dioxin-2-yl)methyl)-4-(4-(methoxymethyl)-1,5-dimethyl-1H-pyrazol-3-yl)piperazine]: on human alpha2A receptors, the Kb is 306 nM and the pIC50 is 5.17. Moreover, at human alpha2C receptors, the Kb is 1.62 nM and the pIC50 is 9.78.

On to `CCOC(=O)c1c(N2CCN(C[C@H]3COc4ccccc4O3)CC2)nn(C)c1C` [Compound of example 12, (S)-Ethyl 3-(4-((2,3-dihydrobenzo[b][1,4]dioxin-2-yl)methyl)piperazin-1-yl)-1,5-dimethyl-1H-pyrazole-4-carboxylate], for which, at human alpha2A receptors, the Kb was 120 nM and the pIC50 is 5.57. Further, on human alpha2C receptors, the antagonist equilibrium constant (Kb) is 2.13 nM and the pIC50 was 9.68.

In the case of `Cc1c(C(C)(C)O)c(N2CCN(C[C@H]3COc4ccccc4O3)CC2)nn1C` [Compound of example 13, (S)-2-(3-(4-((2,3-Dihydrobenzo[b][1,4]dioxin-2-yl)methyl)piperazin-1-yl)-1,5-dimethyl-1H-pyrazol-4-yl)propan-2-ol], the results for the Kb on human alpha2A receptors and at human alpha2C receptors were 43 nM and 2.93 nM, respectively. Moreover, the pIC50 is 6.02 at human alpha2A receptors and 9.52 at human alpha2C receptors.

As to `Cc1nc(N2CCN(C[C@H]3COc4ccccc4O3)CC2)c(N2C(=O)CC(C)(C)C2=O)s1` [Compound of example 32, (S)-1-(4-(4-((2,3-Dihydrobenzo[b][1,4]dioxin-2-yl)methyl)piperazin-1-yl)-2-methylthiazol-5-yl)-3,3-dimethylpyrrolidine-2,5-dione hydrochloride], at human alpha2C receptors, the Kb was below 0.1 nM and the pIC50 is above 11.00.

For the compound “(S)-4-(4-((2,3-Dihydrobenzo[b][1,4]dioxin-2-yl)methyl)piperazin-1-yl)-N-(pyridin-4-yl)-1,2,5-thiadiazol-3-amine dihydrochloride [Compound of example 35]”, at human alpha2A receptors, the Kb is 275 nM and the pIC50 is 5.21.
